# Results reported in patent publication US20250375459A1, “METHODS FOR AMELIORATING COGNITIVE IMPAIRMENT USING BILE ACID DERIVATIVES” (INTERCEPT PHARMACEUTICALS, INC., priority 2022, published 2025).
# Key:
# C57 Blk/6 mice [1] = test: Immunofluorescence analysis of neurons and neural progenitors in aged mice; assay type: in vivo
# Description: FIG. 3 is a bar graph showing immunofluorescence analysis of aged mice treated with obeticholic acid (OCA), ursodeoxycholic acid (URSO), or no supplement (wild type or WT) ad libitum each at 15 months (15 mnth) vs. 9 months (9 mnth), according to the cohort study plan in FIG. 1.
# (§1) Cognitive impairment is a clinical issue with age-related cognitive decline being a substantial problem in society. C57 Blk/6 mice were aged to 9 months when they started either 6 months of Ursodeoxycholic acid or Obeticholic acid therapy or were left to age naturally to 15 months. Between 9 and 15 months of age mice develop progressive cognitive decline, by 15 months, with a novel arm time of one third indicating complete loss of short-term spatial memory (FIG. 2). Y-maze testing was repeated on the animals in each group at 11 and 14 months (FIG. 2; left bars and right bars respectively). […] The effect was not only behavioral.
# [2] = preclinical data, given early in the disease course; cited from earlier work
# C57 Blk/6 mice [3] = test: Y-maze testing of spatial memory in aged mice cohort (non-cholestatic cognitive decline); assay type: in vivo
# Description: FIG. 1 is an illustration of an aged mice cohort study plan.
# FIG. 2 is a bar graph showing the results of Y-maze testing on aged mice treated with ursodeoxycholic acid (URSO), obeticholic acid (OCA), or control at 11 and 14 months, according to the cohort study plan in FIG. 1.
# as §1
# [4] = longer-term experiments, aged mice
structure (smiles),measurement,setting,value
"CC[C@H]1[C@@H](O)[C@@H]2[C@H](CC[C@]3(C)[C@@H]([C@H](C)CCC(=O)O)CC[C@@H]23)[C@@]2(C)CC[C@@H](O)C[C@@H]12 [OCA, 3α,7α-dihydroxy-6α-ethyl-5β-cholan-24-oic acid]",SOX2+ neural progenitor population,"C57 Blk/6 mice [1]; compared to both aged matched groups, 15 months",significant increase
same,"NeuN+ neuron count, neuron loss between 9 and 15 months","C57 Blk/6 mice [1]; immunofluorescence, supplement from 9 to 15 months, fed ad lib",no significant neuron loss
same,neuronal precursors,C57 Blk/6 mice [1]; [4],significant increase
same,overall neuronal cell loss,C57 Blk/6 mice [1]; [4],reversal
same,neurogenesis,"C57 Blk/6 mice [1]; wild-type (WT) mice, FIG. 3",significantly increases
same,neuronal loss,"C57 Blk/6 mice [1]; wild-type (WT) mice, FIG. 3",slows
same,"cognitive dysfunction in cholestasis (e.g., PBC)",[2],reverse
same,Y-maze spatial memory performance between ages 11 and 14 months,"C57 Blk/6 mice [3]; aged C57 Blk/6 mice, therapy started at 9 months, Y-maze at 11 and 14 months",significantly improved
same,"non-cholestatic (age-related) cognitive decline, loss of short-term spatial memory",C57 Blk/6 mice [3]; therapy given between 9 and 15 months of age in the diet,completely abrogated
